Earlier results, collected in US20060222695A1, “Deoxycholic acid liposome-based dermatological topical preparation” (priority 2005, published 2006).

Test system: cell cultures and tissue specimen
Conditions: similar to the effects of laboratory detergents

Structure (SMILES): C[C@H](CCC(=O)O)[C@H]1CC[C@H]2[C@@H]3CC[C@@H]4C[C@H](O)CC[C@]4(C)[C@H]3C[C@H](O)[C@]12C [Deoxycholic acid]
- effect on cells and fat tissue: loss of cell viability, cell membrane lysis and disruption of fat architecture
